Measurements taken from paper PMC9293909 (Nature Communications, 2022).
Several values for one entry are separate records, joined by “and”; a condition that tells them apart may be missing. Identical values can stand only once. Like-named read-outs stand apart in the source and are kept apart here.

Assays:
Type in all cases: cell-based
[1] = biological target: β-arrestin2 recruitment to hA1R (Homo sapiens, UniProt P30542); test: BRET β-arrestin2 recruitment to A1R, HEK 293T
WT hA1R = biological target: T1, WT hA1R (Homo sapiens, UniProt P30542); test: cAMP inhibition, Flp-In-CHO wild-type hA1R; conditions: Fig4j
T1 construct: expressed in transfected cells
T1 sequence (P30542 whole entry): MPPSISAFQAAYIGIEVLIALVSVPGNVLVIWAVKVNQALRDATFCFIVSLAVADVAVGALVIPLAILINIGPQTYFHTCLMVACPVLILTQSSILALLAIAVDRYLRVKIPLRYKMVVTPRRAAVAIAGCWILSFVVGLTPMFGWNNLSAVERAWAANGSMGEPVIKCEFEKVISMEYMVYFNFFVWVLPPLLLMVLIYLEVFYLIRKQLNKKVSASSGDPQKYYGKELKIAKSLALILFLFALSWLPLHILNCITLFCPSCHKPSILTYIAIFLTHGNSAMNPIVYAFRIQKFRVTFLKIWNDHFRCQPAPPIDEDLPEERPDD
Excerpt: (§1) Cell lines were maintained using standard subculturing routines as guided by the European Collection of Cell Culture (ECACC) and checked annually for mycoplasma infection using an EZ-PCR mycoplasma test kit from Biological Industries (Kibbutz Beit-Haemek, Israel). To investigate the signalling properties of the rat A3R (rA3R) and mutants of the human A1R (hA1R), stable cell lines were generated using Flp-In-CHO cells (ThermoFisher - R75807). Untagged hA1R from sigNanoLuciferase (Nluc)-A1R in pcDNA3.1+ and untagged rA3R from sigNluc-A3R in pcDNA3.1 + (both gifted by Dr Steve Briddon (University of Nottingham)) were cloned into the pcDNA5/FRT expression vector (Thermo Fisher Scientific). Mutations within the hA1R were made using the QuikChange Lightening Site-Directed Mutagenesis Kit (Agilent Technologies) in accordance with the manufacturer’s instructions. Constructs for generating Goa/b interfering and scrambled peptides were generated by PCR and cloned into the BamHI/HindIII site of pcDNA3.1- as described in Gilchrist et al.[60],. Prior to the initiator codon a Kozak sequence was included for enhanced translation. The peptide sequences used were: for Goa […], for Gob […], and for the scrambled peptide […] was used. Constructs were sequenced to confirm fidelity. […]

[2] = biological target: T2, hA1R I292^8.47 alanine mutant (Homo sapiens, UniProt P30542, I292A); test: cAMP inhibition, Flp-In-CHO hA1R I292A; conditions: Fig4j; read-out: cAMP inhibition potency, 292A, Average (converted)
T2 construct: expressed in transfected cells
T2 sequence (P30542 whole entry I292A): as the sequence (P30542 whole entry) above, with I292A counted along it
Excerpt: as §1

hA1R:Goa = biological target: T3, hA1R:Goa (Homo sapiens, UniProt P30542); test: TRUPATH G protein dissociation BRET assay, Goa; conditions: Fig2h
T3 construct: cDNA resource centre (pcDNA3.1-A1R)
T3 sequence (P30542 whole entry): as the sequence (P30542 whole entry) above
T3 sequence (P09471 2-354 partner limits assumed): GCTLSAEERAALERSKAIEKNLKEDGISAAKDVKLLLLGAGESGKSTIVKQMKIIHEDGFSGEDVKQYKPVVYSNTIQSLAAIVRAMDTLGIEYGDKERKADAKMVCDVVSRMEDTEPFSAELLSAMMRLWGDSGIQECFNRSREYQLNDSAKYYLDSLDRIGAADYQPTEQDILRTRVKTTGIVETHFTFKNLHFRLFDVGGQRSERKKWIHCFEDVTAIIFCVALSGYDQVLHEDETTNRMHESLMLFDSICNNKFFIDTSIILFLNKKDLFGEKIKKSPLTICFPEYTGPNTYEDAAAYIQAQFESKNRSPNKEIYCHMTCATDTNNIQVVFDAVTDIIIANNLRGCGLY
T3 sequence (P16520 whole entry partner): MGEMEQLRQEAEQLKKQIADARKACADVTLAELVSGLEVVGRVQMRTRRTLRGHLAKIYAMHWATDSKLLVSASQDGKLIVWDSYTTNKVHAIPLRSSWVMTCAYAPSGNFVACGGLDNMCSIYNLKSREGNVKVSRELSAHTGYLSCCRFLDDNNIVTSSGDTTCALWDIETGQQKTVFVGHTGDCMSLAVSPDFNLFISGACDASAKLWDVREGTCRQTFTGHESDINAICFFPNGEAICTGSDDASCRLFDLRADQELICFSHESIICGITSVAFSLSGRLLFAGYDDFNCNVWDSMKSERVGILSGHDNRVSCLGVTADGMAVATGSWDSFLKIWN
T3 sequence (Q9UK08 1-67 partner limits assumed): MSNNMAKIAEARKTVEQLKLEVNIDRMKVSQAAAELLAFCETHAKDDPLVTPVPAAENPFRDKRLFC
Procedure: Cells were plated in a density of 1,500,000 cells/well in a 6-well plate and grown in DMEM /F-12 GlutaMAX™ media (Thermo Fisher Scientific, UK) supplemented with 10% FBS (Sigma, UK) and 1% AA (Sigma, UK). After being grown overnight, cells in each well were transfected using polyethylenimine 25 kDa (PEI, Polysciences Inc., Germany) at a 6:1 ratio of PEI to DNA, diluted in 150 mM NaCl. […] Gɑ (either Goa-RLuc8, or Gob-RLuc8), Gβ3 and Gγ8-GFP2 constructs were purchased as part of the TRUPATH sensor kit from Addgene, pcDNA3.1-A1R was obtained from cDNA resource centre, and pcDNA3.1 (-) zeo was purchased from Invitrogen. After 24 h, cells were trypsinised and re-seeded onto poly-L-lysine (PLL)-coated white 96-well plates (Greiner, UK) at the density of 50,000 cells/well in a complete DMEM/F-12 medium. After grown overnight, the culture media was discarded and replaced with 80 μl assay buffer (1× Hank’s balanced salt solution (HBSS) with calcium, supplemented with 20 mM HEPES and 0.1% BSA at pH 7.4). The assay was started by adding 10 μl of coelenterazine 400a (Nanolight technology, USA) to a final concentration of 5 μM. The plates were then incubated in the dark for 5 min, prior to the addition of 10 μl compounds (in a range of 0.01 nM – 1 µM). […] BRET signal was recorded for 30 min on a Mithras LB940 plate reader allowing sequential integration of signal detected from GFP2 and Rluc8.

Chain of β-arrestin2 recruitment to hA1R (P30542 whole entry): as the sequence (P30542 whole entry) above

SMILES	β-arrestin2 recruitment at the A1R [1]	IC50 (WT hA1R; individual replicate, read-out: cAMP inhibition potency, WT (converted))	IC50 (WT hA1R; read-out: cAMP inhibition potency, WT, Average (converted)) [nM]	IC50 [2] [nM]	EC50 (hA1R:Goa; individual replicate, read-out: TRUPATH Goa potency (converted))	EC50 (hA1R:Goa; n 8, read-out: TRUPATH Goa potency, Average (converted)) [nM]
OC[C@H]1O[C@@H](n2cnc3c(NC4CCCC4)ncnc32)[C@H](O)[C@@H]1O [CPA, N^6-Cyclopentyladenosine]	no β-arrestin recruitment	–	–	–	–	–
OC[C@H]1O[C@@H](n2cnc3c(N[C@@H]4CCC[C@H]4O)ncnc32)[C@H](O)[C@@H]1O [HOCPA, (2 R,3 R,4 S,5 R)−2-(6-{[(1 R,2 R)−2-hydroxycyclopentyl]amino}−9H-purin-9-yl)−5-(hydroxymethyl)oxolane-3,4-diol]	–	0.971 nM and 1.09 nM and 1.91 nM and 1.17 nM	1.23	4.79	64.6 nM and 83.2 nM and 81.3 nM and 37.2 nM and 27.5 nM and 44.7 nM and 30.2 nM	45.7
